In patent US11111264B2, “Morphic forms of 4-amino-7-(3,4-dihydroxy-5-(hydroxymethyl)tetrahydrofuran-2-yl)-2-methyl-7H-pyrrolo[2,3-d]pyrimidine-5-carboxamide and uses thereof” (Chimerix, Inc., priority 2017, dated 2021):
In brackets after ≈: the same amount, converted by molar mass.

Tests used:
Assay type in all cases: physicochemical
[1] = Approximate solubility of Compound 1 in various solvents (stepwise solvent addition); conditions: thermodynamic from solid, read-out: Solubility [S, mg/mL]
Description: To determine approximate solubility of Compound 1, solvent was added in steps to the solid material (about 20 to 100 mg). The solubility values were rough approximations. Therefore, these values were used solely for the preliminary design of subsequent crystallization experiments.

[2] = Exact solubility of Compound 1 Form A in selected solvent systems (1 day suspension, HPLC); conditions: for solubility at 1 day: thermodynamic from solid
Description: (§1) The exact solubilities of Compound 1 Form A in selected solvent systems were determined at 24° C. and 60° C. About 100 mg of Compound 1 Form A were suspended in 2.0 mL of solvent and stirred using a magnetic stirrer bar for 1 day at 24° C. or 60° C., followed by filter centrifugation at the corresponding temperature. The concentration of Compound 1 was then determined by HPLC.
as §1, with “solubilities of Form A” for “solubilities of Compound 1 Form A”, “Compound 1 were suspended” for “Compound 1 Form A were suspended”

[3] = Chemical stability when stirring suspension at 75° C. (Experiment No. 26); conditions: 1-propanol/0.01 M NaOH aq 1:2 v/v; stirring at 75° C. overnight
Description: Experiment No. 26 tested seeding behavior at 75° C. at the 16 g scale as well as chemical stability when stirring suspensions at 75° C. for extended times.
16.02 g of Compound 1 were placed in a 300 mL glass reactor (diameter 70 mm) and 200 mL of 1-propanol/0.01 M NaOH aq 1:2 v/v were added at room temperature. The suspension was stirred using a two-bladed impeller (diameter 40 mm; 500 rpm) and heated to 90° C. in 30 minutes. After stirring at 90° C. for about 15 minutes (500 rpm) the solution formed was cooled to 75° C. with a cooling rate of 15K/hour and stirred at 75° C. for 10 minutes.
At 75° C. the solution was seeded with a suspension of 158 mg of crude Compound 1 in 5 mL of water. The weak suspension formed was stirred at 75° C. overnight followed by hot filtration (sintered glass funnel, porosity P4, diameter 65 mm; the suspension was easy to filter). The glass reactor was flushed with 20 mL of water and the washing suspension was also filtered. The filter cake was again washed with 20 mL of water and air dried for 20 minutes by drawing ambient air through the glass funnel.

Cc1nc(N)c2c(C(N)=O)cn([C@@H]3O[C@H](CO)[C@@H](O)[C@H]3O)c2n1 [Compound 1, 4-amino-7-((2R,3R,4S,5R)-3,4-dihydroxy-5-(hydroxymethyl)tetrahydrofuran-2-yl)-2-methyl-7H-pyrrolo[2,3-d]pyrimidine-5-carboxamide]
solubility ([1]; aqueous buffer, NaOH aq 0.1M, 60° C.): ~9 mg/mL (≈ 27.8 mM)
solubility ([1]; aqueous buffer, NaOH aq 0.1M, RT): ~3 mg/mL (≈ 9.28 mM)
solubility ([1]; aqueous buffer, NaOH aq 0.5M, 60° C.): ~38 mg/mL (≈ 118 mM)
solubility ([1]; aqueous buffer, NaOH aq 0.5M, RT): ~16 mg/mL (≈ 49.5 mM)
solubility ([1]; aqueous buffer, NaOH aq 1M, 60° C.): ~95 mg/mL (≈ 294 mM)
solubility ([1]; aqueous buffer, NaOH aq 1M, RT): ~60 mg/mL (≈ 186 mM)
solubility ([1]; aqueous with cosolvent or surfactant or cyclodextrin, 1-Propanol/water 1:2 v/v, RT): ~6 mg/mL (≈ 18.6 mM)
solubility ([1]; aqueous with cosolvent or surfactant or cyclodextrin, 1-Propanol/water 1:2 v/v, at 80° C.): ~51 mg/mL (≈ 158 mM)
solubility ([1]; aqueous with cosolvent or surfactant or cyclodextrin, 1-Propanol/water 2:1 v/v, RT): ~7 mg/mL (≈ 21.7 mM)
solubility ([1]; aqueous with cosolvent or surfactant or cyclodextrin, 2-Propanol/NaOH aq 0.1M 1:1 v/v, RT): ~16 mg/mL (≈ 49.5 mM)
solubility ([1]; aqueous with cosolvent or surfactant or cyclodextrin, 2-Propanol/water 1:1 v/v, RT): ~7 mg/mL (≈ 21.7 mM)
solubility ([1]; aqueous with cosolvent or surfactant or cyclodextrin, 2-Propanol/water 1:2 v/v, RT): ~5 mg/mL (≈ 15.5 mM)
solubility ([1]; aqueous with cosolvent or surfactant or cyclodextrin, 2-Propanol/water 1:2 v/v, at 70° C.): ~31 mg/mL (≈ 95.9 mM)
solubility ([1]; aqueous with cosolvent or surfactant or cyclodextrin, 2-Propanol/water 2:1 v/v, RT): ~6 mg/mL (≈ 18.6 mM)
solubility ([1]; aqueous with cosolvent or surfactant or cyclodextrin, DMSO/NaOH aq 0.1M 1:1 v/v, RT): ~20 mg/mL (≈ 61.9 mM)
solubility ([1]; aqueous with cosolvent or surfactant or cyclodextrin, DMSO/water 1:1 v/v, RT): ~8 mg/mL (≈ 24.7 mM)
solubility ([1]; aqueous with cosolvent or surfactant or cyclodextrin, DMSO/water 1:1 v/v, at 80° C.): ~45 mg/mL (≈ 139 mM)
solubility ([1]; aqueous with cosolvent or surfactant or cyclodextrin, DMSO/water 1:2 v/v, RT): ~3 mg/mL (≈ 9.28 mM)
solubility ([1]; aqueous with cosolvent or surfactant or cyclodextrin, THF/water 1:1 v/v, RT): ~22 mg/mL (≈ 68 mM)
solubility ([1]; aqueous with cosolvent or surfactant or cyclodextrin, THF/water 1:4 v/v, RT): ~6 mg/mL (≈ 18.6 mM)
solubility ([1]; aqueous with cosolvent or surfactant or cyclodextrin, THF/water 4:1 v/v, RT): ~15 mg/mL (≈ 46.4 mM)
solubility ([1]; organic solvent or mixture, DMSO, RT): ~500 mg/mL (≈ 1550 mM)
solubility ([1]; organic solvent or mixture, Ethanol, RT): 1.7 mg/mL (≈ 5.26 mM)
solubility ([1]; organic solvent or mixture, THF, RT): < 1 mg/mL
solubility ([1]; Water, 60° C.): ~3 mg/mL (≈ 9.28 mM)
solubility ([1]; Water, RT): < 1.3 mg/mL
solubility at 1 day ([2]; 0.1 M aqueous NaOH, aqueous buffer, NaOH aq 0.1M, 24° C.): 2.8 mg/mL (≈ 8.66 mM)
solubility at 1 day ([2]; 0.1 M aqueous NaOH, aqueous buffer, NaOH aq 0.1M, 60° C.): 8 mg/mL (≈ 24.7 mM)
solubility at 1 day ([2]; DMSO/0.01 M aqueous NaOH 1:2 v/v, aqueous with cosolvent or surfactant or cyclodextrin, DMSO/NaOH aq 0.01M 1:2 v/v, 24° C.): 4.8 mg/mL (≈ 14.8 mM)
solubility at 1 day ([2]; DMSO/0.01 M aqueous NaOH 1:2 v/v, aqueous with cosolvent or surfactant or cyclodextrin, DMSO/NaOH aq 0.01M 1:2 v/v, 60° C.): 19.6 mg/mL (≈ 60.6 mM)
solubility at 1 day ([2]; DMSO/0.1 M aqueous NaOH 1:2 v/v, aqueous with cosolvent or surfactant or cyclodextrin, DMSO/NaOH aq 0.1M 1:2 v/v, 24° C.): 12.5 mg/mL (≈ 38.7 mM)
solubility ([2]; NaOH aq 0.01M, 24° C.): 0.81 mg/mL (≈ 2.51 mM)
solubility at 1 day ([2]; aqueous with cosolvent or surfactant or cyclodextrin, 1-Propanol/NaOH aq 0.01M 1:3 v/v, 24° C.): 6.8 mg/mL (≈ 21 mM)
solubility at 1 day ([2]; aqueous with cosolvent or surfactant or cyclodextrin, 1-Propanol/NaOH aq 0.01M 1:3 v/v, 60° C.): 25.9 mg/mL (≈ 80.1 mM)
solubility at 1 day ([2]; aqueous with cosolvent or surfactant or cyclodextrin, 1-Propanol/NaOH aq 0.1M 1:3 v/v, 24° C.): 16.6 mg/mL (≈ 51.3 mM)
solubility at 1 day ([2]; aqueous with cosolvent or surfactant or cyclodextrin, 1-Propanol/water 1:2 v/v, 60° C.): 30.9 mg/mL (≈ 95.6 mM)
solubility at 1 day ([2]; aqueous with cosolvent or surfactant or cyclodextrin, 2-Propanol/NaOH aq 0.01M 1:3 v/v, 24° C.): 5.2 mg/mL (≈ 16.1 mM)
solubility at 1 day ([2]; aqueous with cosolvent or surfactant or cyclodextrin, 2-Propanol/NaOH aq 0.01M 1:3 v/v, 60° C.): 16.9 mg/mL (≈ 52.3 mM)
solubility at 1 day ([2]; aqueous with cosolvent or surfactant or cyclodextrin, 2-Propanol/NaOH aq 0.1M 1:3 v/v, 24° C.): 14.1 mg/mL (≈ 43.6 mM)
solubility at 1 day ([2]; aqueous with cosolvent or surfactant or cyclodextrin, 2-Propanol/water 1:2 v/v, 60° C.): 26.6 mg/mL (≈ 82.3 mM)
solubility at 1 day ([2]; aqueous with cosolvent or surfactant or cyclodextrin, DMSO/water 1:1 v/v, 60° C.): 18.7 mg/mL (≈ 57.8 mM)
solubility at 1 day ([2]; aqueous with cosolvent or surfactant or cyclodextrin, Ethanol/NaOH aq 0.01M 1:3 v/v, 24° C.): 3.3 mg/mL (≈ 10.2 mM)
solubility at 1 day ([2]; aqueous with cosolvent or surfactant or cyclodextrin, Ethanol/NaOH aq 0.01M 1:3 v/v, 60° C.): 15.3 mg/mL (≈ 47.3 mM)
solubility at 1 day ([2]; aqueous with cosolvent or surfactant or cyclodextrin, Ethanol/NaOH aq 0.1M 1:3 v/v, 24° C.): 9 mg/mL (≈ 27.8 mM)
chemical stability of suspension [3]: chemically stable
